Remaining binding data for 3 compounds are collected here from patent publication US12275731B2, “Azaindole inhibitors of wild-type and mutant forms of LRRK2” (DANA-FARBER CANCER INSTITUTE, INC., priority 2018, dated 2025).

Assay in all cases: KinomeScan profiling
Common to all, as to assay type: binding

For one test, the target named is BTK (Homo sapiens, UniProt Q06187). The settings on record: read-out: % control. An outline of the steps: (§1)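 The panel spans 468 kinases, and each inventive compound was applied at 1 μM from DMSO. Lower % control means stronger binding; the activity cut-off is set at less than 35%.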
For another test, the target named is T1, ABL1-nonphosphorylated (Homo sapiens, UniProt P00519).
T1 construct: purchased KinomeScan®
The settings on record: read-out: % control. An outline of the steps: as §1

Another test addresses T2, MAK (Homo sapiens, UniProt P20794).
T2 sequence (P20794 1-623): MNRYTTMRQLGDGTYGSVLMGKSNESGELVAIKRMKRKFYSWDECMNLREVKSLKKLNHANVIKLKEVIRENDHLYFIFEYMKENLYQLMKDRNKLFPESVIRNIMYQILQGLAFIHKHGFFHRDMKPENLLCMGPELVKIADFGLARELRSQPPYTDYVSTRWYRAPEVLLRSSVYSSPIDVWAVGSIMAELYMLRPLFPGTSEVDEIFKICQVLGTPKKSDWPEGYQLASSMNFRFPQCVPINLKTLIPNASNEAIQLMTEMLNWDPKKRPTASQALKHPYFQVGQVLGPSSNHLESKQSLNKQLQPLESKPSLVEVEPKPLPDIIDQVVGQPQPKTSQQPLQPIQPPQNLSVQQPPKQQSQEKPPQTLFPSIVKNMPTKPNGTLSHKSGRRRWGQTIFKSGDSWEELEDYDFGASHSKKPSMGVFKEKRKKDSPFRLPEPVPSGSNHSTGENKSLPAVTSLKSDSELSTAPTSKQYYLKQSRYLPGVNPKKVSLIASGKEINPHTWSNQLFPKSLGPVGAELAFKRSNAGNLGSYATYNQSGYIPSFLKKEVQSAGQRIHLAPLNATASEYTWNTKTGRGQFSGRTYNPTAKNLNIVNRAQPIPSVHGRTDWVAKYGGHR
As to conditions: read-out: % control. Put shortly:
as §1

The target of the next test is EPHA7 (Homo sapiens, UniProt Q15375). As to conditions: EPHA7, 1 μM; read-out: % control. An outline of the steps:
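Luminescence (RLU) was converted to percent of control, with DMSO set as 100% and a reference compound as 0%. Test compounds were run at 1 μM against 468 kinases. Kinases showing below 35% of control were scored as bound.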

The target in another test is T3, PHKG2 (Homo sapiens, UniProt P15735).
T3 sequence (P15735 1-406): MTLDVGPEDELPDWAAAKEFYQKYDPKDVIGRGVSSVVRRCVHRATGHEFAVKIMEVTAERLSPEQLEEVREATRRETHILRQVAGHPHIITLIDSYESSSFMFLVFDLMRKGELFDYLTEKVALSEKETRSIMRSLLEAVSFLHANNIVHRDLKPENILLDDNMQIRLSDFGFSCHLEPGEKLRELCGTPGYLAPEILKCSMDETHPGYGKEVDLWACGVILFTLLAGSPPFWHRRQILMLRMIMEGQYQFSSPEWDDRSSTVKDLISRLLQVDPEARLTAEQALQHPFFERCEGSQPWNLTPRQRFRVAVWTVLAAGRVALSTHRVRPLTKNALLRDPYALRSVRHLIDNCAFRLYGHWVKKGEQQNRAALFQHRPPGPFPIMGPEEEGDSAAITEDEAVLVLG
As to conditions: PHKG2, 1 μM; read-out: % control. Put shortly: as §1

Another test deals with ERK1 (Homo sapiens, UniProt P27361). As to conditions: ERK1, 1 μM; read-out: % control. Put shortly: as §1
In another test the target is T4, MEK4 (Homo sapiens, UniProt P45985).
T4 sequence (P45985 1-399): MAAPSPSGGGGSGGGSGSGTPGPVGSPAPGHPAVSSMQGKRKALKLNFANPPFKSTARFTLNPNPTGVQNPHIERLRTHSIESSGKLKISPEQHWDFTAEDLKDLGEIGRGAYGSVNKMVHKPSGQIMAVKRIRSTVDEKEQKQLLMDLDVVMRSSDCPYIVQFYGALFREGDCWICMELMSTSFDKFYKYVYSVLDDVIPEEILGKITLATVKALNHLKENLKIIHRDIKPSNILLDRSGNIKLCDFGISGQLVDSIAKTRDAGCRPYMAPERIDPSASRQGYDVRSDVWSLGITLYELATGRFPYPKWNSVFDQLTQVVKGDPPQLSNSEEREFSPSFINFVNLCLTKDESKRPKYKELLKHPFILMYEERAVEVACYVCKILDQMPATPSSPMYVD
The settings on record: MEK4, 1 μM; read-out: % control. Put shortly:
as §1

A further test concerns the target T5, MST2 (Homo sapiens, UniProt Q13188).
T5 sequence (Q13188 1-491): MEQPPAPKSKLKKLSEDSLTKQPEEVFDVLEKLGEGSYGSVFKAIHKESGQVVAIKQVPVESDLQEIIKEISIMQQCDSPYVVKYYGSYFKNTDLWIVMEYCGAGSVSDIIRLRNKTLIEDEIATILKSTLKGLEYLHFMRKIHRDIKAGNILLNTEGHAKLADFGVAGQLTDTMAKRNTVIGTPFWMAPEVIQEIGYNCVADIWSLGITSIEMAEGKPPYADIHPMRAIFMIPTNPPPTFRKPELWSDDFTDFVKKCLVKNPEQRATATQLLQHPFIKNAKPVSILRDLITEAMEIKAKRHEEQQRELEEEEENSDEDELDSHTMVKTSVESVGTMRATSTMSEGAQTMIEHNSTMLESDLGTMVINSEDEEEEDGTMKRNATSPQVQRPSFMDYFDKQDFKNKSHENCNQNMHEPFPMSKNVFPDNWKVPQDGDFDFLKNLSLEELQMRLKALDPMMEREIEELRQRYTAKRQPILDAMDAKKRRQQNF
As to conditions: MST2, 1 μM; read-out: % control. Put shortly:
as §1

Structures are written as SMILES.

EPHA7, sequence (Q15375 28-998): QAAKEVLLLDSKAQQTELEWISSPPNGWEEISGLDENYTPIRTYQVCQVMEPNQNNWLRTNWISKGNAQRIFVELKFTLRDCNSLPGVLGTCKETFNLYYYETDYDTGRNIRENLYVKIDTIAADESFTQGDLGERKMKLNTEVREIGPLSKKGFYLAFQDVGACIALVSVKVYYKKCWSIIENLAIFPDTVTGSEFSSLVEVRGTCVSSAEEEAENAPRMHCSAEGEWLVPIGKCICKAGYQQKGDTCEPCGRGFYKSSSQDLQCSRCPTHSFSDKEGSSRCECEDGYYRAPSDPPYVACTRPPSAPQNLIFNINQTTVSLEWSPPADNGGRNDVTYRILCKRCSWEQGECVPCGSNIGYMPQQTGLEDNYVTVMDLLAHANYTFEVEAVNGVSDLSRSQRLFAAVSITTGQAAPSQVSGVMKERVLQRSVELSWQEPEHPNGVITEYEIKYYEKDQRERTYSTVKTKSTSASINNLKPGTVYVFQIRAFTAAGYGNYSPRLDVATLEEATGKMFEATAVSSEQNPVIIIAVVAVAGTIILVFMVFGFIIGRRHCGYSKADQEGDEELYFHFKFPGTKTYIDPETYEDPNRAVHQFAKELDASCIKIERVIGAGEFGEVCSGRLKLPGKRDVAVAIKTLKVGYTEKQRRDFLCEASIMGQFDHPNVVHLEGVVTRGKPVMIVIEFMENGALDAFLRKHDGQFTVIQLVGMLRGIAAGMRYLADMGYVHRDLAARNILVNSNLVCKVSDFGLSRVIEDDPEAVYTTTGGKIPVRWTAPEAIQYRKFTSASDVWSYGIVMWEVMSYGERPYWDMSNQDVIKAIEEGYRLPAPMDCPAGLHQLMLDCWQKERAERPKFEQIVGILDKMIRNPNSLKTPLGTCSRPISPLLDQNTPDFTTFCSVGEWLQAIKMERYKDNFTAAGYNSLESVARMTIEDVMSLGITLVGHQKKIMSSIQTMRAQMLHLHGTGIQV
T1 sequence (P00519 whole entry): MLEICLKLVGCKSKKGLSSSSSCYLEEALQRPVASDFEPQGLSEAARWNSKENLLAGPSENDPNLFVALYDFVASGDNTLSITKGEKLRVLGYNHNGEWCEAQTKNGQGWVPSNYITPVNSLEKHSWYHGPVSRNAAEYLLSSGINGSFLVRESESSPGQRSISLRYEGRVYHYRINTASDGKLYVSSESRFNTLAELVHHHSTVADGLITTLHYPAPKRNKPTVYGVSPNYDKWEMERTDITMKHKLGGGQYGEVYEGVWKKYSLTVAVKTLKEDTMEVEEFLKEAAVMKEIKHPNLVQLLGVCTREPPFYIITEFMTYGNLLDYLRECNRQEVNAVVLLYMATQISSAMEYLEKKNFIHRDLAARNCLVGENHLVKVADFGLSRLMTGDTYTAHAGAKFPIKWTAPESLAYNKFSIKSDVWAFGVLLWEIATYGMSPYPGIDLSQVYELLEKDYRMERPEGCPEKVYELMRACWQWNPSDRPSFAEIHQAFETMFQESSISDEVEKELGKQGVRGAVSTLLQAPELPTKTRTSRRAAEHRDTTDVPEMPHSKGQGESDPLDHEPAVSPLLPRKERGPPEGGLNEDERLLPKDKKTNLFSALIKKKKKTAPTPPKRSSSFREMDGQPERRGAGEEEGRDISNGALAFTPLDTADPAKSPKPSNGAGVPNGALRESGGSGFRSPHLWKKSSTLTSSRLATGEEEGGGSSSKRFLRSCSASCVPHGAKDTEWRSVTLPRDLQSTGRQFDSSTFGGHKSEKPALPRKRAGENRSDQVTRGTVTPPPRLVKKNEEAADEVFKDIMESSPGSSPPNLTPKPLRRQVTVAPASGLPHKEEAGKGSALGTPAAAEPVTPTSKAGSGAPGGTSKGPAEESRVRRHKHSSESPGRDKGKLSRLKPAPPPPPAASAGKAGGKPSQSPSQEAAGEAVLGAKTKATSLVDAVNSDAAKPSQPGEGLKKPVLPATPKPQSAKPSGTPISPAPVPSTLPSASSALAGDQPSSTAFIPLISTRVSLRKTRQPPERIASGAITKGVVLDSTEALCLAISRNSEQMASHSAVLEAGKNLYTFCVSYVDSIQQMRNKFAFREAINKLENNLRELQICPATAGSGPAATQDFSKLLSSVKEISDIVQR
ERK1, sequence (P27361 whole entry): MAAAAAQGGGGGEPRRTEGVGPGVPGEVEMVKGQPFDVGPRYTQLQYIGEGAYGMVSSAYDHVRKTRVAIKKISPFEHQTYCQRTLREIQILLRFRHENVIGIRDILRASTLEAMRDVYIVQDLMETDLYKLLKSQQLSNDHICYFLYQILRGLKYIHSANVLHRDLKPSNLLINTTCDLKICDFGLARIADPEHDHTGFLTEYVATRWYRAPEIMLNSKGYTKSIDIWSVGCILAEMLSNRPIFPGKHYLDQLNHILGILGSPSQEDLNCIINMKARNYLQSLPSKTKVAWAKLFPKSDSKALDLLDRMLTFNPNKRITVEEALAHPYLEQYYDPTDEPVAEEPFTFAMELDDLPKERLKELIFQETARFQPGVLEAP
BTK, sequence (Q06187 whole entry): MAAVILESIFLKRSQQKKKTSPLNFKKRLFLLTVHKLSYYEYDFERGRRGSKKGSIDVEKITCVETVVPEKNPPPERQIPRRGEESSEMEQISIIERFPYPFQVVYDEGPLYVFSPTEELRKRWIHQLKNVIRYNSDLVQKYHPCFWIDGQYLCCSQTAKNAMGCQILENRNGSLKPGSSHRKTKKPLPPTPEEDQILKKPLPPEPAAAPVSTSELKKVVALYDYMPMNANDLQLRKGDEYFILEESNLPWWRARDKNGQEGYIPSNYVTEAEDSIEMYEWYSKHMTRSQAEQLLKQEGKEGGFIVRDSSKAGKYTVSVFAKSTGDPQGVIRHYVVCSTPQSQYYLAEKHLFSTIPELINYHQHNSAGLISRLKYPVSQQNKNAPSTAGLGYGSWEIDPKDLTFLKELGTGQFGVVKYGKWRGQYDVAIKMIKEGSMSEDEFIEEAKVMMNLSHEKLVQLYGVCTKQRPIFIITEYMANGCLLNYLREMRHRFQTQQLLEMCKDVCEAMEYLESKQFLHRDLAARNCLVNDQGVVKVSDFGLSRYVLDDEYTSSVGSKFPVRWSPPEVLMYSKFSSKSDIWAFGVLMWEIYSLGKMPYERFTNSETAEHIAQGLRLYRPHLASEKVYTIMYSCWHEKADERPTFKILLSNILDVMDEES

For `CNc1c(-c2ccc(C(=O)N3CCC(N4CCOCC4)CC3)cc2)cnc2[nH]cc(Cl)c12` [Compound 96, (4-(3-chloro-4-(methylamino)-1H-pyrrolo[2,3-b]pyridin-5-yl)phenyl)(4-morpholinopiperidin-1-yl)methanone], the remaining binding at 1 µM at BTK was found to be 78%; on ABL1-nonphosphorylated it was 63%; at MAK, 97%; on EPHA7, 96%; on PHKG2, 19%; at ERK1, 100%. The remaining binding at 1 µM amounted to 7.3% on MEK4 and 99% at MST2.
For `O=C(c1ccc(-c2cnc3[nH]cc(Cl)c3c2NC2CCCC2)cc1)N1CCC(N2CCOCC2)CC1` [Compound 101, (4-(3-chloro-4-(cyclopentylamino)-1H-pyrrolo[2,3-b]pyridin-5-yl)phenyl)(4-morpholinopiperidin-1-yl)methanone], the remaining binding at 1 µM amounted to 100% at BTK; 98% at ABL1-nonphosphorylated; 87% at MAK; 96% at EPHA7; 100% on PHKG2; 98% on ERK1. For the same compound, the remaining binding at 1 µM was 28% at MEK4 and 74% at MST2.
As to `CNc1c(-c2cnn([C@H]3CCN(C(C)=O)C[C@@H]3F)c2)cnc2[nH]cc(Cl)c12` [Compound 77, 1-((3S,4S)-4-(4-(3-chloro-4-(methylamino)-1H-pyrrolo[2,3-b]pyridin-5-yl)-1H-pyrazol-1-yl)-3-fluoropiperidin-1-yl)ethan-1-one], the remaining binding at 1 µM at BTK worked out at 68%; at ABL1-nonphosphorylated it was 54%; on MAK, 100%; on EPHA7, 78%; on PHKG2 it was 52%; at ERK1 it was 100%. For the same compound, the remaining binding at 1 µM at MEK4 was found to be 45%; on MST2, 100%.
